The numbers were not newly measured in patent US20240423897A1, “LONGEVITY SERUM” (Wellbeam Consumer Health Intermediate, LLC, priority 2023, published 2024), which cites them from elsewhere.

In this data set the test system is skin. Particulars: topical application.

Take `C=C[C@@](C)(/C=C/c1ccc(O)cc1)CCC=C(C)C` [bakuchiol]: the “effect on lines and wrinkles, pigmentation, elasticity, firmness, and photo-damage” value is “significant improvement”; the “irritating effect on the skin” value is recorded as “no irritating effect”.
